Source: paper PMC8184751, “Proline/arginine dipeptide repeat polymers derail protein folding in amyotrophic lateral sclerosis” (Nature Communications, 2021)
“Also recorded” adds a separate entry of the source.

Key:
PPIA [1] = biological target: T1, PPIA (Homo sapiens, UniProt P62937); assay: NMR titration of 15N-labeled PPIA with dipeptide repeat polymers (1H-15N HSQC); type: binding; settings: for Arg55 csp / Arg55 I/I0 (titration, SI Fig 2b): 40 µM 15N-PPIA; for Arg55 csp / Arg55 I/I0 (titration, SI Fig 2b) / I/I0 of the HSQC cross-peak of PPIA residue 55 (SI Fig 2a): pH 7.4, 298 K; for binding to PPIA judged from NMR signals: eightfold excess of peptide over PPIA, 1H-15N HSQC; for I/I0 of the HSQC cross-peak of PPIA residue 55 (SI Fig 2a): eightfold excess of peptide (320 µM) over 40 µM 15N-PPIA
T1 construct: His-tag (cleaved yes); made in house; host or cells: Escherichia coli BL21(DE3)
Procedure: Titration of ^15N-labeled PPIA with dipeptide repeat polymers (PR20, GR20, GP20, AP20, PR10, PR5, and PR2) were carried out in 25 mM HEPES buffer with 100 mM NaCl, 2 mM DTT, 0.01% NaN3, and 10% D20 at pH 7.4. For 40 µM protein, the ligand concentrations were increased from 0 to 320 µM in five steps. For the PPIA/GP20 and PPIA/AP20 titrations, the concentration of the repeat polymer was further increased up to 3200 µM. Two-dimensional ^15N-^1H HSQC spectra[41] were acquired at 298 K for each PPIA/repeat polymer ratio.
Kd calculations for the interactions of PPIA with PR repeats (PR5, PR10, and PR20) were made from the dipeptide repeat polymer-induced variations in PPIA cross-peak intensities, using the equation for slow exchange regime interactions:1 1−I/I0=Imax(Kd+P+x)−Kd+P+x^2−4×P×x/2P where I is the intensity of PPIA peaks in the presence of increasing ligand concentrations, I0 is the intensity of free protein, P is the total concentration of protein, x is the concentration of ligand, and Kd is the dissociation constant.
The error in 1−(I/I0) is taken to be the error in the experimental quantity of I/I0 and has been calculated from the noise in HSQC spectra according to2 σI/I0=I/I0σI0/I0^2+σ(I)/I^2 where σ(I/Io) is the error in I/I0, σ(Io) and σ(I) are the noise (RMS value of background noise from various regions) in the HSQC spectrum of PPIA alone and that of PPIA in the presence of ligand, respectively.
In case of the PPIA/GP20- and PPIA/AP20 interactions, the Kd value was calculated from the equation for fast exchange interactions using chemical shift perturbations (CSP) according to3 CSP=CSPmax(Kd+P+x)−(Kd+P+x)^2−4×P×x/2P where4 CSP=(δH)^2+δN/6.5^2
Imax and CSPmax were treated as independent free fit parameters for the residues. The error value in the Kd is the standard error of fitting.

RNaseT1 = biological target: T2, RNaseT1 (Aspergillus oryzae, UniProt P00651); assay: Refolding of RNaseT1 without PPIA (self-folding control with PR20); type: biochemical; settings: for exponential folding rate constant k of RNaseT1, no PPIA: Rnase T1:PR20=1:175, no CypA, same conditions
T2 construct: purchased Thermo Fischer
T2 sequence (P00651 27-130): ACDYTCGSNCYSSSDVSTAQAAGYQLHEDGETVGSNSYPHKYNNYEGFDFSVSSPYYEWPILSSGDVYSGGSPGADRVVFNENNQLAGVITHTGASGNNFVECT
Procedure: (§1) RNaseT1 (purchased from Thermo Fischer) was unfolded by incubating in 6.9 M urea at 10 °C for 2 h in 100 mM Tris-HCl buffer at pH 8. Refolding of RNaseT1 was initiated by diluting it 35 times with same buffer such that the final concentration of RNaseT1 was 2.27 µM and urea 0.197 M. Tryptophan fluorescence emission was measured at 320 nm (excitation wavelength = 280 nm) during refolding for 1 h on a Cary Eclipse Fluorescence Spectrophotometer at 10 °C. In experiments with PR20, PPIA, or both, they were added to the dilution buffer and incubated at 10 °C for 2 h prior to mixing. Data were normalized and averaged for graphical representation. The exponential constants, k, for the increasing fluorescence intensities were obtained from fitting a mono-exponential function to the experimental data in Graph Pad Prism.

PPIA [2] = biological target: T1, PPIA; assay: PPIA-catalysed refolding of urea-unfolded RNaseT1 (tryptophan fluorescence); type: biochemical
Procedure: as §1

PPIA [3] = settings: read-out: binding affinity to the enzyme; cited from earlier work
prolyl isomerase PPIA [4] = biological target: T3, prolyl isomerase PPIA (human, UniProt P62937 2-164); assay: NMR titration; 40 µM 15N-labeled PPIA titrated with GP20 or AP20 up to 3200 µM; 1H-15N HSQC at 298 K; 25 mM HEPES, 100 mM NaCl, 2 mM DTT, pH 7.4; Kd from chemical shift perturbations (equation for fast exchange); settings: both partners purified
T3 construct: human PPIA (peptidyl-prolyl cis-trans isomerase A, cyclophilin A); gene cloned into a modified pET28a vector; 15N-labeled for the NMR titrations, unlabeled for ITC, crystallography and folding assays; source: E. coli BL21(DE3), purified (Ni-NTA, TEV cleavage, Superdex 75); 15N-labeled in M9 minimal media for NMR

prolyl isomerase PPIA [5] = biological target: T3, prolyl isomerase PPIA; assay: NMR titration; 40 µM 15N-labeled PPIA titrated with repeat polymer from 0 to 320 µM in five steps; 1H-15N HSQC at 298 K; 25 mM HEPES, 100 mM NaCl, 2 mM DTT, pH 7.4; Kd from the attenuation of the cross-peak of Arg55 (equation for slow exchange); settings: both partners purified
prolyl isomerase PPIA [6] = biological target: T3, prolyl isomerase PPIA; assay: ITC; 44 µM PPIA in the cell titrated with 650 µM PR20 in the syringe; 10 °C; 25 mM HEPES, 100 mM NaCl, 1 mM TCEP, pH 7.4; number of binding sites fixed to one; settings: both partners purified

T1 sequence (P62937 whole entry): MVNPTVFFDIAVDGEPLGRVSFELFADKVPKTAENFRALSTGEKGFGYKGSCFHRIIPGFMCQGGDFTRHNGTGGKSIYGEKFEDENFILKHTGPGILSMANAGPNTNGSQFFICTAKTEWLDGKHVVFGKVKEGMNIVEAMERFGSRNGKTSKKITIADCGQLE
T3 sequence (P62937 2-164): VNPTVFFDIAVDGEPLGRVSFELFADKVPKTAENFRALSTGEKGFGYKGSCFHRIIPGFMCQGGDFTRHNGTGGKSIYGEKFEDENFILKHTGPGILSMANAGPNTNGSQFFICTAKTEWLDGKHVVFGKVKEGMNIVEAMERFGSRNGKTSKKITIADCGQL

## Ac-APAPAPAPAPAPAPAPAPAPAPAPAPAPAPAPAPAPAPAP-NH2 [AP20]
PPIA [1]; peptide conc. 32 uM
  Arg55 csp: 0.009725
PPIA [1]; peptide conc. 160 uM
  Arg55 csp: 0.03975
PPIA [1]; peptide conc. 320 uM
  Arg55 csp: 0.06372
PPIA [1]; peptide conc. 640 uM
  Arg55 csp: 0.09595
PPIA [1]; peptide conc. 1280 uM
  Arg55 csp: 0.1279
PPIA [1]; peptide conc. 3200 uM
  Arg55 csp: 0.1597

## GR20: 20-dipeptide glycine/arginine repeat polymer, acetylated and amidated termini
PPIA [1]
  binding to PPIA judged from NMR signals: does not bind to PPIA
PPIA [1]; ligand conc 9.6 uM
  Arg55 I/I0 (titration, SI Fig 2b): 0.0912
PPIA [1]; ligand conc 32 uM
  Arg55 I/I0 (titration, SI Fig 2b): 0.0182
PPIA [1]; ligand conc 96 uM
  Arg55 I/I0 (titration, SI Fig 2b): -0.00762
PPIA [1]; ligand conc 160 uM
  Arg55 I/I0 (titration, SI Fig 2b): 0.124
PPIA [1]; ligand conc 320 uM
  Arg55 I/I0 (titration, SI Fig 2b): -0.0665

## Ac-PRPRPRPRPRPRPRPRPRPR-NH2 [PR10]
PPIA [1]
  Kd: 27.1 µM
  I/I0 of the HSQC cross-peak of PPIA residue 55 (SI Fig 2a): 0.1506

## Ac-PRPRPRPRPR-NH2 [PR5]
PPIA [1]
  Kd: 48.5 µM
  I/I0 of the HSQC cross-peak of PPIA residue 55 (SI Fig 2a): 0.1037

## Ac-GPGPGPGPGPGPGPGPGPGPGPGPGPGPGPGPGPGPGPGP-NH2 [GP20]
PPIA [1]; peptide conc. 32 uM
  Arg55 csp: 0.002383
PPIA [1]; peptide conc. 96 uM
  Arg55 csp: 0.006761
PPIA [1]; peptide conc. 160 uM
  Arg55 csp: 0.01147
PPIA [1]; peptide conc. 320 uM
  Arg55 csp: 0.01968
PPIA [1]; peptide conc. 640 uM
  Arg55 csp: 0.034
PPIA [1]; peptide conc. 1280 uM
  Arg55 csp: 0.04768
PPIA [1]; peptide conc. 2560 uM
  Arg55 csp: 0.06404
PPIA [1]; peptide conc. 3200 uM
  Arg55 csp: 0.07024

## Ac-PRPRPRPRPRPRPRPRPRPRPRPRPRPRPRPRPRPRPRPR-NH2 [PR20]
RNaseT1; independent experiment 2 of 3
  exponential folding rate constant k of RNaseT1, no PPIA: 0.1365
RNaseT1; independent experiment 3 of 3
  exponential folding rate constant k of RNaseT1, no PPIA: 0.1365
RNaseT1; large excess of PR20, 10 °C, pH 8
  refolding kinetics of RNaseT1 in the presence of PR20, no PPIA: unchanged
PPIA [1]
  I/I0 of the HSQC cross-peak of PPIA residue 55 (SI Fig 2a): -0.02438
PPIA [1]; ligand conc 9.6 uM
  Arg55 I/I0 (titration, SI Fig 2b): 0.211
PPIA [1]; ligand conc 32 uM
  Arg55 I/I0 (titration, SI Fig 2b): 0.472
PPIA [1]; ligand conc 96 uM
  Arg55 I/I0 (titration, SI Fig 2b): 0.746
PPIA [1]; ligand conc 160 uM
  Arg55 I/I0 (titration, SI Fig 2b): 0.931
PPIA [1]; ligand conc 320 uM
  Arg55 I/I0 (titration, SI Fig 2b): 1.02
PPIA [2]; Rnase T1:CypA:PR20=1:0.033:7, 2.27 µM RNaseT1, 100 mM Tris-HCl pH 8, 10 °C, fluorescence 320 nm, mono-exponential fit, independent experiment 1 of 3
  exponential folding rate constant k of RNaseT1: 0.2834
PPIA [2]; Rnase T1:CypA:PR20=1:0.033:7, same conditions, independent experiment 2 of 3
  exponential folding rate constant k of RNaseT1: 0.2936
PPIA [2]; Rnase T1:CypA:PR20=1:0.033:7, same conditions, independent experiment 3 of 3
  exponential folding rate constant k of RNaseT1: 0.3078
PPIA [2]; Rnase T1:CypA:PR20=1:0.033:20, 2.27 µM RNaseT1, pH 8, 10 °C, mono-exponential fit, independent experiment 1 of 3
  exponential folding rate constant k of RNaseT1: 0.2235
PPIA [2]; Rnase T1:CypA:PR20=1:0.033:20, same conditions, independent experiment 2 of 3
  exponential folding rate constant k of RNaseT1: 0.3061
PPIA [2]; Rnase T1:CypA:PR20=1:0.033:20, same conditions, independent experiment 3 of 3
  exponential folding rate constant k of RNaseT1: 0.2847
PPIA [2]; Rnase T1:CypA:PR20=1:0.033:46, 2.27 µM RNaseT1, pH 8, 10 °C, mono-exponential fit, independent experiment 1 of 3
  exponential folding rate constant k of RNaseT1: 0.2129
PPIA [2]; Rnase T1:CypA:PR20=1:0.033:46, same conditions, independent experiment 2 of 3
  exponential folding rate constant k of RNaseT1: 0.2303
PPIA [2]; Rnase T1:CypA:PR20=1:0.033:46, same conditions, independent experiment 3 of 3
  exponential folding rate constant k of RNaseT1: 0.2811
PPIA [2]; Rnase T1:CypA:PR20=1:0.033:175, 2.27 µM RNaseT1, pH 8, 10 °C, mono-exponential fit, independent experiment 1 of 3
  exponential folding rate constant k of RNaseT1: 0.1927
PPIA [2]; Rnase T1:CypA:PR20=1:0.033:175, same conditions, independent experiment 2 of 3
  exponential folding rate constant k of RNaseT1: 0.1913
PPIA [2]; Rnase T1:CypA:PR20=1:0.033:175, same conditions, independent experiment 3 of 3
  exponential folding rate constant k of RNaseT1: 0.202
PPIA [2]; increasing PR20: 7, 20, 46, 175 times excess over RNaseT1
  effect on the catalyzing effect of PPIA on RNaseT1 folding: inhibited the catalyzing effect of PPIA in a dose-dependent manner

## PR2: two PR dipeptides, the four-residue peptide, acetylated and amidated termini (Ac-PRPR-NH2)
PPIA [1]
  I/I0 of the HSQC cross-peak of PPIA residue 55 (SI Fig 2a): 0.9376
  binding to PPIA judged from NMR signals: does not efficiently bind; also recorded: abrogated the binding to PPIA

## cyclosporin A
PPIA [3]
  Kd: 0.013 ± 0.004 µM

B1: dipeptide repeat polymer AP20 (peptide)
peptide: Ac-APAPAPAPAPAPAPAPAPAPAPAPAPAPAPAPAPAPAPAP-NH2
notes: also called alanine/proline repeat polymer; source: synthetic peptide (solid-phase peptide synthesis)
Prolyl isomerase PPIA [4]
  Kd: 597 µM

B2: PR repeat polymer with five PR dipeptides (PR5) (peptide)
peptide: Ac-PRPRPRPRPR-NH2
notes: source: synthetic peptide (solid-phase peptide synthesis)
Prolyl isomerase PPIA [5]
  Kd: 49 µM

B3: dipeptide repeat polymer GP20 (peptide)
peptide: Ac-GPGPGPGPGPGPGPGPGPGPGPGPGPGPGPGPGPGPGPGP-NH2
notes: also called glycine/proline repeat polymer; source: synthetic peptide (solid-phase peptide synthesis)
Prolyl isomerase PPIA [4]
  Kd: 1190 µM

B4: PR repeat polymer with 20 repeats (PR20) (peptide)
peptide: Ac-PRPRPRPRPRPRPRPRPRPRPRPRPRPRPRPRPRPRPRPR-NH2
notes: dipeptide repeat polymer translated from the C9orf72 hexanucleotide repeat expansion; Only eight residues of the polymer could be built in the asymmetric unit of PDB 7ABT; also called 20-dipeptide polymer PR20; 20-repeat PR polymer; source: synthetic peptide (solid-phase peptide synthesis)
Prolyl isomerase PPIA [6]
  Kd: ~50 µM
Prolyl isomerase PPIA [5]
  Kd: 23 µM

B5: PR repeat polymer with ten PR dipeptides (PR10) (peptide)
peptide: Ac-PRPRPRPRPRPRPRPRPRPR-NH2
notes: as for B2
Prolyl isomerase PPIA [5]
  Kd: 27 µM
